# Results taken from patent publication US12559749B2, “Methods of rescuing stop codons via genetic reassignment with ACE-tRNA” (UNIVERSITY OF IOWA RESEARCH FOUNDATION, priority 2017, dated 2026).
# Experiments:
# [1] = Phase 3 clinical trials; cited from earlier work
# [2] = test system: native stop codons (TAA, TAG, TGA), 3′UTR ribosome density; experiment: Ribosome footprint profiling of transcriptome-wide 3′UTRs, HEK293 cells; format: cell-based, human
# Description: The question was raised whether ACE-tRNAs that show efficacious suppression of premature stop codons may also induce global readthrough of native stop codons. To address this potential “off target” suppression, a transcriptome-wide quantitative profile of actively engaged ribosomes on all cellular transcripts was obtained by generating libraries of ribosome footprints from HEK293 cells expressing exogenous ACE-tRNAs or a control mock plasmid (puc57GG). Streptomycin was removed from the growth media to prevent readthrough artifacts. For comparison, the ribosome footprint library was also generated from cells in the presence or absence of G418 (150 μM, 48 h). […] Only transcripts with a minimum threshold of 5 RPKM in the coding sequence and 0.5 RPKM in the 3′UTR in two replicate libraries were included for the quantitation comparison (254 transcripts in G418 and 495-748 transcripts in ACE-tRNAs). […] ACE-tRNAs examined here had no detectable change of 3′UTR ribosome density with the exception of ACE-tRNA Gln-UAA and Arg-UGA which induced approximately a 2-fold increase in 3′UTR ribosome density for the cognate stop codon complimentary to the ACE-tRNA anticodon. Understanding the biological significance of 2-fold readthrough of protein stops will require further study, but this effect is substantially lower compared to the 100- to 1000-fold suppression of PTC for the same ACE-tRNA.
# Multiple in-frame stop codons are frequently found at the end of genes 37-39 and may cause a minor difference in overall 3′UTR ribosome density for ACE-tRNA and G418 treatment. Ribosome occupancy was examined at each nucleotide in the 3′UTR within a 60 nt region downstream of the stop codons. […] Reads were normalized per total million-mapped reads, compared against control cells, and reported as a log 2-fold change as in panel A. More than 5,200 transcripts were mapped to at least 1 footprint in the region of interest. […] Taken together, the ribosome profiling data argue that efficiency of native stop codon suppression by ACE-tRNAs is generally low, and markedly less than the level of PTC suppression.
# Ribosome Footprint Profiling Library preparation. HEK293 cells transiently transfected with ACE-tRNAs and control plasmid (puc57GG) were grown in standard grown media in the absence of Pen-Strep for 48 h. Libraries were prepared as described^55, with a few modifications. Briefly, cells were rapidly cooled by addition of ice-cold PBS, lysed in lysis buffer (20 mM Tris-HCl/pH7.4, 150 mM NaCl, 5 mM MgCl2, 1 mM DTT, 1% (v/v) Triton X-100, and 25 U ml^−1 Turbo DNase I) for 10 min on ice, and triturated with ten times through a 26-G needle. […]
# [3] = test system: NLuc-UGA PTC reporter; experiment: NanoLuc nonsense reporter screen of ACE-tRNA, UGA (TGA) PTC, HEK293 cells; format: cell-based, human; settings: t-stem variants, luciferase 24 hours post-transfection, HEK cells
# Description: Several different nonsense mutations cause CF, thus underlying roughly 10% of all CF disease. FIG. 7. These cases are concentrated into […] specific genetic lesions: E60X, R75X, G542X, R553X, Q890X, Y1092X, R1158X, R1162X and W1282X. We propose that it should be feasible, with the right approach, to screen existing human tRNA sequences for modification and tolerance to anti-codon editing. To this end, roughly 144 ACE-tRNAs were candidates to test for those that could be used to promote the repair of the disease causative nonsense codon and the expression of the full-length protein. Specifically, using the scheme described in FIG. 11, tRNA libraries were generated to identify novel tRNA sequences that encode for ACE tRNA with the ability to repair the top CF causative nonsense mutations. Specifically, 10 ng of annealed oligos encoding the ACE-tRNAs were combined with 50 ng of NanoLuc reporter plasmid, 1 ul 10× CutSmart Buffer (NEB), 1 ul T4 ligase (NEB), 10 mM ATP and 1 ul BbsI (NEB) and cycled in a thermocycler as described in FIG. 11. 1 ul of the reaction was transformed into competent E. coli and the transformants were plated on ampicillin agar plates. […]
# Screening studies were first performed to identify the best ACE-tRNA Candidates from tryptophan and glycine. […] Plates were read on a SpectraMax i3 (Molecular Devices). […]
molecule,measurement,setting,value
O=C(O)c1cccc(-c2noc(-c3ccccc3F)n2)c1 [Ataluren],efficacy in patient populations,[1],unexpectedly low efficacy
"CN[C@@H]1[C@@H](O)[C@@H](O[C@@H]2[C@@H](O)[C@H](O[C@H]3O[C@H]([C@@H](C)O)[C@@H](O)[C@H](O)[C@H]3N)[C@@H](N)C[C@H]2N)OC[C@]1(C)O [G418, reference compound]",effect on transcriptome-wide 3′UTR ribosome density,"[2]; G418 150 μM, 48 h, ACE-tRNAs transiently transfected",no observable effect on transcriptome-wide 3′UTR ribosome density
same,ribosome occupancy in the early region of 3′UTR downstream of stop codons,"[2]; per nucleotide, -35 to +65 nt",no observable change of ribosome occupancy
"TS-38 52-62 G-C: t-stem variant of Trpchr17.trna39, SEQ ID NO: 3 (nucleic acid, expressed or natural sequence) GGCCUCGUGGCGCAACGGUAGCGCGUCUGACUUCAGAUCAGAAGGUUCCGGGUUCAAAUCCCGGCGGGGUCA",increase of suppression activity relative to Trpchr17.trna39,[3],roughly 250%
"TS-10 52-62 G-C: t-stem mutant of Trpchr17.tRNA 39, FIG. 12B, SEQ ID NO: 589 (nucleic acid, expressed or natural sequence) GACCUCGUGGCGCAACGGUUAGCGCGUCUGACUUCAGAUCAGAAGGCUCCGGGUUCGAAUCCCGGCGGGGUCA",increase of suppression activity relative to Trpchr17.trna39,[3],~250%
